Laboratory results published in PubChem BioAssay AID1963835 (Molecular Pharmacology Branch, DTP, NCI, 2024).

Tested on: 699152-130-R-J1-PDC complex spheroid viability
Test: Anticancer human tumor 699152-130-R-J1-PDC patient-derived pancreatic carcinoma cell line growth inhibition [POLQ]
Settings: for IC50: curve of first compound; for viability, T/C: stronger effect = lower value
Summary of the method: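 Patient-derived tumour cells were co-cultured with HUVEC and mesenchymal stem cells as multicellular spheroids at 37 °C. They were treated with POLQ inhibitors (novobiocin, ART-558, RP6685) alone or combined with other agents. Top concentrations were at or near clinical Cmax (otherwise 10 microM; SN-38 at 1 microM), decreasing in half-log steps.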
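Further: spheroids exposed to agents for 7 days before viability reading.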
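Wherever viability, T/C is given: percent of DMSO vehicle control viability so 100% = vehicle and 0% = no viable signal.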

In the case of CC(C)n1c(=O)n(C)c2cnc3cc(F)c(-c4ccc(OCCCN5CCCCC5)nc4)cc3c21 + Cc1cccc(N(C)C(=O)C2C(O)CCN2c2nc(C)cc(C(F)(F)F)c2C#N)c1, the IC50 (second compound 0.0316 µM) is reported as > 10 µM, the IC50 (second compound 0.1 µM) is reported as > 10 µM and the IC50 (second compound 0.316 µM) is reported as > 10 µM. The IC50 (second compound 1 µM) was > 10 µM, the IC50 (second compound 3.16 µM) was > 10 µM and the IC50 (second compound 10 µM) was > 10 µM. The viability, T/C (second compound 0.0316 µM, first compound 0.0316 µM) was 94.9%, the viability, T/C (second compound 0.0316 µM, first compound 0.1 µM) was 98.5% and the viability, T/C (second compound 0.0316 µM, first compound 0.316 µM) was 100%. The viability, T/C (second compound 0.0316 µM, first compound 1 µM) was 110%, the viability, T/C (second compound 0.0316 µM, first compound 3.16 µM) was 107% and the viability, T/C (second compound 0.0316 µM, first compound 10 µM) was 83.2%. It also gave a viability, T/C (second compound 0.1 µM, first compound 0.0316 µM) of 97.3%, a viability, T/C (second compound 0.1 µM, first compound 0.1 µM) of 101% and a viability, T/C (second compound 0.1 µM, first compound 0.316 µM) of 112%. For the same molecule, the viability, T/C (second compound 0.1 µM, first compound 1 µM) was 109%, the viability, T/C (second compound 0.1 µM, first compound 3.16 µM) was 104% and the viability, T/C (second compound 0.1 µM, first compound 10 µM) was 98.3%. It also gave a viability, T/C (second compound 0.316 µM, first compound 0.0316 µM) of 111%, a viability, T/C (second compound 0.316 µM, first compound 0.1 µM) of 94.2% and a viability, T/C (second compound 0.316 µM, first compound 0.316 µM) of 104%. For the same molecule, the viability, T/C (second compound 0.316 µM, first compound 1 µM) was 118%, the viability, T/C (second compound 0.316 µM, first compound 3.16 µM) was 114% and the viability, T/C (second compound 0.316 µM, first compound 10 µM) was 94.8%. For the same molecule, the viability, T/C (second compound 1 µM, first compound 0.0316 µM) was 113%, the viability, T/C (second compound 1 µM, first compound 0.1 µM) was 116% and the viability, T/C (second compound 1 µM, first compound 0.316 µM) was 98.7%. For the same molecule, the viability, T/C (second compound 1 µM, first compound 1 µM) was 121%, the viability, T/C (second compound 1 µM, first compound 3.16 µM) was 113% and the viability, T/C (second compound 1 µM, first compound 10 µM) was 87.3%. The viability, T/C (second compound 3.16 µM, first compound 0.0316 µM) was 104%, the viability, T/C (second compound 3.16 µM, first compound 0.1 µM) was 116% and the viability, T/C (second compound 3.16 µM, first compound 0.316 µM) was 103%. For the same molecule, the viability, T/C (second compound 3.16 µM, first compound 1 µM) was 104%, the viability, T/C (second compound 3.16 µM, first compound 3.16 µM) was 112% and the viability, T/C (second compound 3.16 µM, first compound 10 µM) was 78.7%. The viability, T/C (second compound 10 µM, first compound 0.0316 µM) was 98.1%, the viability, T/C (second compound 10 µM, first compound 0.1 µM) was 84.4% and the viability, T/C (second compound 10 µM, first compound 0.316 µM) was 123%. The viability, T/C (second compound 10 µM, first compound 1 µM) was 111%, the viability, T/C (second compound 10 µM, first compound 3.16 µM) was 106% and the viability, T/C (second compound 10 µM, first compound 10 µM) was 84.7%.
